# Experimental data: ChEMBL document CHEMBL4385664, “Targeting TRAIL” (Bioorg Med Chem Lett, 2019)
# Experiment: Activation of TRAIL receptor in human T98G cells assessed as reduction in cel viability by Cell-titer-Glo luminescent cell viability assay
# Format: cell-based
row,Structure (SMILES),IC50 [µM]
1,N=C1S/C(=C\c2ccc(-c3ccc4c(c3)C(=O)NC4=O)o2)C(=O)N1c1ccc(Br)cc1,2
2,COc1ccc(N2C(=N)S/C(=C\c3ccc(-c4ccc5c(c4)C(=O)N(Cc4ccccc4)C5=O)o3)C2=O)cc1,> 30
3,N=C1S/C(=C\c2ccc(-c3ccc4c(c3)C(=O)NC4=O)o2)C(=O)N1c1ccccc1,> 30
4,COc1ccc(N2C(=N)S/C(=C\c3ccc(-c4ccc5c(c4)C(=O)NC5=O)o3)C2=O)cc1,> 30
5,Cc1ccc(N2C(=N)S/C(=C\c3ccc(-c4ccc5c(c4)C(=O)NC5=O)o3)C2=O)cc1,> 30
6,COc1ccc(N2C(=N)S/C(=C\c3ccc(-c4ccc5c(c4)C(=O)N(C)C5=O)o3)C2=O)cc1,> 30
7,COc1ccc(N2C(=N)S/C(=C\c3ccc(-c4ccccc4)o3)C2=O)cc1,> 30
8,N=C1S/C(=C\c2ccc(-c3ccc4c(c3)C(=O)NC4=O)o2)C(=O)N1c1ccccn1,> 30
9,Cc1csc(N2C(=N)S/C(=C\c3ccc(-c4ccc5c(c4)C(=O)NC5=O)o3)C2=O)n1,> 30
10,CN(C)c1ccc(N2C(=N)S/C(=C\c3ccc(-c4ccc5c(c4)C(=O)NC5=O)o3)C2=O)cc1,> 30
11,COc1ccc(N2C(=N)S/C(=C\c3ccc(-c4ccc5c(c4)C(=O)NC5=O)s3)C2=O)cc1,10
12,N=C1S/C(=C\c2ccc(-c3ccc4c(c3)C(=O)NC4=O)o2)C(=O)N1c1ccc(Cl)cc1,25
13,COc1ccc(N2C(=N)S/C(=C\c3ccc(-c4cccnc4)o3)C2=O)cc1,25
14,N=C1S/C(=C\c2ccc(-c3ccc4c(c3)C(=O)NC4=O)o2)C(=O)N1c1ccc(F)cc1,20
15,COc1cccc(N2C(=N)S/C(=C\c3ccc(-c4ccc5c(c4)C(=O)NC5=O)o3)C2=O)c1,10
16,COc1ccc(N2C(=N)S/C(=C\c3ccc(-c4ccncc4)o3)C2=O)cc1,20
17,CN1C(=N)S/C(=C\c2ccc(-c3ccc4c(c3)C(=O)NC4=O)o2)C1=O,> 30
18,COc1ccc(N2C(=N)S/C(=C\c3ccc(-c4cncnc4)o3)C2=O)cc1,> 30
19,COc1ccc(N2C(=O)S/C(=C\c3ccc(-c4ccc5c(c4)C(=O)NC5=O)o3)C2=O)cc1,> 30
20,N=C1S/C(=C\c2ccc(-c3ccc4c(c3)C(=O)NC4=O)o2)C(=O)N1c1ccc(C(F)(F)F)cc1,> 30
21,C=CCN1C(=N)S/C(=C\c2ccc(-c3ccc4c(c3)C(=O)NC4=O)o2)C1=O,> 30
22,N=C1S/C(=C\c2ccc(-c3ccc4c(c3)C(=O)NC4=O)o2)C(=O)N1c1ncc[nH]1,20
23,COc1ccc(N2C(=N)S/C(=C\c3ccc(-c4ccc(OC)c(F)c4)o3)C2=O)cc1,20
24,COc1ccc(/C=C2\SC(=N)N(c3ccc(OC)cc3)C2=O)cc1,> 30
